Test systems include OVCAR-3; EKVX; CCRF-CEM; A549; LOX IMVI; SNB-19; OVCAR-8; K562; SF-539; U-251; HCT-116; RPMI-8226; HCT-15; MOLT-4; HT-29; NCI-H23; HOP-92; SNB-75; HOP-62; UO-31.
Assay in all cases: NCI anticancer screen, dose series, 48 h

This note sets out measurements from ChEMBL document CHEMBL1201862, “PubChem BioAssay data set” (2004).

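Interpolation was linear, between the two tested concentrations surrounding the appropriate level; five concentrations were tested over 48 hours in 96-well plates. GI50 marks 50% less growth.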 Calls of active or inactive are those of the source. Cut-off read from the data, not from the text of the source: active = GI50 up to about 1.1 µM and inactive = higher.

Turning to `CC1(C)N=C(N)N=C(N)N1c1ccc(OCCCOc2ccccc2)c(Cl)c1`, the GI50 with OVCAR-3 was 0.406 µM (active); in the assay on EKVX, 0.303 µM (active); with CCRF-CEM, 0.175 µM (active); in the assay on A549, 0.0473 µM (active); in the assay on LOX IMVI, 0.0457 µM (active); with SNB-19 it was 0.0379 µM (active). Also, the GI50 with OVCAR-8 is 0.514 µM (active); in the assay with K562, 2.48 µM (inactive); in the assay on SF-539 it was 0.336 µM (active); in the assay with U-251, < 0.0236 µM (active); with HCT-116, 0.026 µM (active); in the assay on RPMI-8226 it was 0.547 µM (active). The GI50 with HCT-15 is 2.48 µM; with MOLT-4, 0.0336 µM (active); with HT-29, 0.0161 µM (active); in the assay on NCI-H23 it was 0.239 µM (active); in the assay on HOP-92, 0.409 µM (active); in the assay with SNB-75, 0.948 µM (active).
On to `COc1cc2c(oc(=O)c3c4occc4cc(OC)c23)c2cccc(OCc3ccccc3)c12`, for which the GI50 in the assay with OVCAR-3, in the assay with EKVX, in the assay with CCRF-CEM, in the assay on A549, in the assay with LOX IMVI and with SNB-19 was > 100 µM (inactive) each time. Further, the GI50 with OVCAR-8, with K562, with SF-539, with U-251, in the assay with HCT-116 and in the assay on RPMI-8226 was > 100 µM (inactive) each time. In addition, the GI50 is greater than 100 µM in the assay on HCT-15; > 100 µM (inactive) in the assay on MOLT-4; > 100 µM (inactive) with HT-29; > 100 µM (inactive) with NCI-H23; > 100 µM (inactive) in the assay with HOP-92; > 100 µM (inactive) with HOP-62. Further, the figures for the GI50 in the assay on UO-31 and with SNB-75 were > 100 µM (inactive) and 40 µM (inactive), respectively.
As for `NCCCNCCSSCc1ccccc1CSSCCNCCCN`, the GI50 with OVCAR-3 was 73.8 µM (inactive); with EKVX, > 100 µM (inactive); in the assay with CCRF-CEM, 4.54 µM (inactive); with A549, > 100 µM (inactive); in the assay with LOX IMVI, 61.1 µM (inactive); in the assay with SNB-19, > 100 µM (inactive). Further, the GI50 with OVCAR-8 was > 100 µM (inactive); in the assay with K562 it was 23.6 µM (inactive); in the assay on SF-539 it was > 100 µM (inactive); with U-251, > 100 µM (inactive); with RPMI-8226 it was 27.8 µM (inactive); in the assay on HCT-15 it was 57.1 µM. Moreover, the GI50 in the assay on MOLT-4 was 22 µM (inactive); in the assay on HT-29 it was 14.2 µM (inactive); in the assay on NCI-H23, > 100 µM (inactive); with HOP-92 it was 25.9 µM (inactive); with HOP-62, > 100 µM (inactive); in the assay on UO-31, 60.5 µM (inactive). Besides, in the assay with SNB-75, the GI50 was 16.4 µM (inactive).
In the case of `N/N=C1\C(=O)N(c2ccc(Cl)c(Cl)c2)C(=O)C1C(=O)Nc1ccc(Cl)c(Cl)c1` (stereo not drawn), the GI50 with OVCAR-3 was 49.9 µM (inactive); in the assay on EKVX it was 89.1 µM (inactive); in the assay with CCRF-CEM it was 34.4 µM (inactive); with A549, 42.9 µM (inactive); in the assay with SNB-19, 28.2 µM (inactive); in the assay on OVCAR-8, 42.8 µM (inactive). Also, the GI50 in the assay on K562 is 34.8 µM (inactive); in the assay with SF-539, 79.6 µM (inactive); in the assay with U-251, 31.1 µM (inactive); with HCT-116, 75.2 µM (inactive); with RPMI-8226, > 100 µM (inactive); in the assay with HCT-15 it was 50.7 µM. Also, the GI50 is 42.4 µM (inactive) in the assay with MOLT-4; 49.9 µM (inactive) in the assay on HT-29; 40.6 µM (inactive) with NCI-H23; 48.1 µM (inactive) with HOP-92; 41.4 µM (inactive) in the assay on HOP-62; 19.8 µM (inactive) in the assay with UO-31. Further, the GI50 in the assay on SNB-75 is > 100 µM (inactive).
For the compound `C[C@]12CC[C@H](O)C=C1CC[C@@H]1[C@@H]2CC[C@]2(C)C(c3ccc(=O)oc3)CC[C@]12O` (stereo partly drawn), the GI50 in the assay on OVCAR-3 was 0.0125 µM (active); with EKVX, 0.0311 µM (active); in the assay with CCRF-CEM, 0.0125 µM (active); with A549, 0.0125 µM (active); in the assay on LOX IMVI, 0.0125 µM (active); in the assay with SNB-19, 0.0327 µM (active). Moreover, the GI50 in the assay with OVCAR-8 was 0.015 µM (active); in the assay on K562 it was 0.0125 µM (active); with SF-539, 0.0125 µM (active); in the assay on U-251, 0.0153 µM (active); with HCT-116, 0.0125 µM (active); with RPMI-8226 it was 0.0125 µM (active). Besides, the GI50 was 0.0175 µM in the assay with HCT-15; 0.035 µM (active) in the assay on HT-29; 0.0125 µM (active) in the assay with NCI-H23; 0.014 µM (active) with HOP-92; 0.0125 µM (active) in the assay on HOP-62; 0.0141 µM (active) in the assay with UO-31. Also, in the assay on SNB-75, the GI50 was 0.0156 µM (active).
In the case of `C[S+](C)([O-])=Nn1c(=O)n2n(c1=O)[C@H]1CC[C@@H]2C1`, the GI50 with OVCAR-3, in the assay on EKVX, in the assay on CCRF-CEM, in the assay on A549, in the assay with LOX IMVI and in the assay on SNB-19 was > 100 µM (inactive) in each case. Besides, the GI50 was > 100 µM (inactive) with OVCAR-8; > 100 µM (inactive) in the assay with K562; > 100 µM (inactive) with SF-539; > 100 µM (inactive) in the assay with U-251; > 100 µM (inactive) in the assay with RPMI-8226; greater than 100 µM with HCT-15. In addition, the GI50 in the assay on MOLT-4, with HT-29, in the assay on NCI-H23, with HOP-92, with HOP-62 and in the assay with UO-31 was > 100 µM (inactive) in each case. Further, in the assay on SNB-75, the GI50 is > 100 µM (inactive).
On to `Clc1ccc(Cl)c(Nc2ccnc(SCc3ccccc3)n2)c1`, for which the GI50 was > 100 µM (inactive) with OVCAR-3; 57.9 µM (inactive) in the assay on EKVX; > 100 µM (inactive) in the assay on CCRF-CEM; > 100 µM (inactive) in the assay with A549; 46.6 µM (inactive) in the assay with LOX IMVI; > 100 µM (inactive) in the assay on SNB-19. For the same compound, the GI50 with OVCAR-8 was > 100 µM (inactive); in the assay with K562 it was > 100 µM (inactive); in the assay on SF-539, > 100 µM (inactive); in the assay on U-251, > 100 µM (inactive); in the assay with HCT-116, > 100 µM (inactive); with RPMI-8226, 99.8 µM (inactive). In addition, the GI50 with HCT-15 is greater than 100 µM; with MOLT-4, > 100 µM (inactive); with HT-29, 69.8 µM (inactive); with NCI-H23, > 100 µM (inactive); in the assay with HOP-92, > 100 µM (inactive); in the assay on HOP-62, > 100 µM (inactive). Moreover, the GI50 in the assay with UO-31 and with SNB-75 was > 100 µM (inactive) in each case.
For the compound `COc1ccc2nc3ccc(OC)cc3c([S+]([O-])CCCl)c2c1` (stereo not drawn), the GI50 with OVCAR-3 is 2.2 µM (inactive); in the assay with EKVX, 10.5 µM (inactive); with CCRF-CEM, 2.42 µM (inactive); in the assay on A549 it was 20.9 µM (inactive); in the assay with LOX IMVI, 2.4 µM (inactive); in the assay on SNB-19, 22.5 µM (inactive). For the same compound, the GI50 in the assay on OVCAR-8 is 2.67 µM (inactive); with SF-539, 1.72 µM (inactive); in the assay on U-251, 14.5 µM (inactive); in the assay on HCT-116, 1.83 µM (inactive); in the assay with RPMI-8226, 2.11 µM (inactive); with HCT-15 it was 2.65 µM. Moreover, the GI50 in the assay with MOLT-4 was 2.82 µM (inactive); with HT-29, 2.04 µM (inactive); with NCI-H23, 4.26 µM (inactive); in the assay with HOP-92 it was 2.49 µM (inactive); with HOP-62 it was 18.1 µM (inactive); in the assay with UO-31 it was 2.28 µM (inactive). Also, the GI50 in the assay with SNB-75 was 17.8 µM (inactive).
With `CC(C)c1ccccc1SCc1cc(=O)cc(CSc2ccccc2C(C)C)o1`, the GI50 was 17.9 µM (inactive) in the assay on OVCAR-3; 19.3 µM (inactive) in the assay on EKVX; 26.9 µM (inactive) with CCRF-CEM; 19.7 µM (inactive) in the assay on A549; 26.8 µM (inactive) in the assay with LOX IMVI; 32.7 µM (inactive) in the assay on SNB-19. The GI50 in the assay on OVCAR-8 was 22.7 µM (inactive); with K562 it was 48.1 µM (inactive); in the assay on U-251 it was 22 µM (inactive); in the assay with RPMI-8226, 32.4 µM (inactive); with HCT-15 it was 24.7 µM; in the assay on MOLT-4, 22.6 µM (inactive). The GI50 in the assay on HT-29 was 19.8 µM (inactive); in the assay with NCI-H23 it was 37.6 µM (inactive); in the assay on HOP-92, 15.2 µM (inactive); in the assay on HOP-62 it was 20.7 µM (inactive); with UO-31, 27.4 µM (inactive); with SNB-75, 19.4 µM (inactive).
Consider `O=NN(CCCl)C(=O)N[C@H]1CCCC[C@@H]1Cl`, for which the GI50 with OVCAR-3 is > 100 µM (inactive); in the assay on EKVX it was > 100 µM (inactive); in the assay with CCRF-CEM, 19.6 µM (inactive); in the assay on A549, 61.5 µM (inactive); in the assay with SNB-19, > 100 µM (inactive); in the assay with OVCAR-8 it was > 100 µM (inactive). Moreover, the GI50 in the assay on K562 is 55.8 µM (inactive); in the assay on SF-539, 24.9 µM (inactive); with U-251 it was 30.4 µM (inactive); in the assay on HCT-116 it was 50.6 µM (inactive); in the assay with RPMI-8226, 43.8 µM (inactive); with HCT-15, greater than 100 µM. For the same compound, the GI50 is 32.4 µM (inactive) with MOLT-4; 79.6 µM (inactive) with HT-29; 71.6 µM (inactive) with NCI-H23; > 100 µM (inactive) with HOP-92; > 100 µM (inactive) with UO-31; 47 µM (inactive) in the assay with SNB-75.
`O=C(Nc1nc2ccc([N+](=O)[O-])cc2s1)C(=O)C(C(=O)c1ccccc1F)C1OC(=O)c2ccccc21` (stereo not drawn): the GI50 in the assay with EKVX was 22.1 µM (inactive); in the assay with CCRF-CEM it was 17.3 µM (inactive); in the assay on A549, 57 µM (inactive); in the assay on LOX IMVI it was 27 µM (inactive); in the assay on SNB-19, 28.6 µM (inactive); in the assay with OVCAR-8, 47.9 µM (inactive). The GI50 was 29.9 µM (inactive) with K562; 21.3 µM (inactive) in the assay on SF-539; 16.9 µM (inactive) in the assay with U-251; 37.1 µM (inactive) in the assay on HCT-116; 16.4 µM (inactive) in the assay on RPMI-8226; 31.2 µM in the assay with HCT-15. Further, the GI50 is 17.7 µM (inactive) in the assay on MOLT-4; 40 µM (inactive) in the assay on HT-29; 67.1 µM (inactive) in the assay on NCI-H23; > 100 µM (inactive) with HOP-92; 62.2 µM (inactive) in the assay with HOP-62; 38 µM (inactive) with UO-31. In the assay on SNB-75, the GI50 is 30.9 µM (inactive).
